Here are results for 8 compounds from paper PMC7471899 (2020).

Test [1] deals with 22_TERRA (RNA, G4) AGGGUUAGGGUUAGGGUUAGGG
In words: fluorescent intercalator displacement (FID). The note with it: 10 mM KCl + 10 mM potassium phosphate (20 mM K+); pH 7, room temperature; 0.25 µM RNA; 0.5 µM thiazole orange displaced.

Test [2] relates to 26_ds (RNA, hairpin) CAAUCGGAUCGAAUUCGAUCCGAUUG
As to the kind of experiment: fluorescent intercalator displacement (FID). The note with it: 10 mM KCl + 10 mM potassium phosphate (20 mM K+); pH 7, room temperature; 0.25 µM RNA; 0.5 µM thiazole orange displaced.

Test [3] relates to 22_TERRA_2Ap19 (RNA, G4, 2-aminopurine at 19) AGGGUUAGGGUUAGGGUUAGGG
As to the kind of experiment: 2-aminopurine fluorescence quenching. The note with it: 10 mM KCl + 10 mM potassium phosphate; pH 7.0, room temperature; 2.5 μM RNA; 2.5 or 5 μM compound.

For test [4], the system named is 22_TERRA_2Ap13 (RNA, G4, 2-aminopurine at 13) AGGGUUAGGGUUAGGGUUAGGG
As to the kind of experiment: 2-aminopurine fluorescence quenching. The note with it: 10 mM KCl + 10 mM potassium phosphate; pH 7.0, room temperature; 2.5 μM RNA; 2.5 or 5 μM compound.

Test [5] relates to 22_TERRA_2Ap7 (RNA, G4, 2-aminopurine at 7) AGGGUUAGGGUUAGGGUUAGGG
In words: 2-aminopurine fluorescence quenching. The note with it: 10 mM KCl + 10 mM potassium phosphate; pH 7.0, room temperature; 2.5 μM RNA; 2.5 or 5 μM compound.

Values joined by “and” are separate entries in the source; they are usually repeats but may differ in a detail not shown here. Equal entries are not always repeated.

On to `C(=NC(COCc1ccc(COCC(N=Cc2ccccn2)c2ccccc2)cc1)c1ccccc1)c1ccccn1.C(=NC(COCc1ccc(COCC(N=Cc2ccccn2)c2ccccc2)cc1)c1ccccc1)c1ccccn1.C(=NC(COCc1ccc(COCC(N=Cc2ccccn2)c2ccccc2)cc1)c1ccccc1)c1ccccn1.[Fe+2].[Fe+2]` (stereo not shown) [5a], for which the DC50 in test [1] is 470 ± 50 nM and 570 ± 60 nM; in test [2], 720 ± 20 nM and 950 ± 80 nM.
For the compound `C(=NC(COCc1cccc(COCC(N=Cc2ccccn2)c2ccccc2)c1)c1ccccc1)c1ccccn1.C(=NC(COCc1cccc(COCC(N=Cc2ccccn2)c2ccccc2)c1)c1ccccc1)c1ccccn1.C(=NC(COCc1cccc(COCC(N=Cc2ccccn2)c2ccccc2)c1)c1ccccc1)c1ccccn1.[Fe+2].[Fe+2]` (stereo not shown) [5b], the DC50 in test [1] was 410 ± 40 nM and 270 ± 20 nM; in test [2], 1470 ± 90 nM and 1580 ± 100 nM. Besides, the binding entry in test [3], in test [4] and in test [5] was “yes” each time.
For `C(=NC(COCc1ccc(-c2ccc(COCC(N=Cc3ccccn3)c3ccccc3)cc2)cc1)c1ccccc1)c1ccccn1.C(=NC(COCc1ccc(-c2ccc(COCC(N=Cc3ccccn3)c3ccccc3)cc2)cc1)c1ccccc1)c1ccccn1.C(=NC(COCc1ccc(-c2ccc(COCC(N=Cc3ccccn3)c3ccccc3)cc2)cc1)c1ccccc1)c1ccccn1.[Fe+2].[Fe+2]` (stereo not shown) [5c], the DC50 in test [1] is 590 ± 40 nM and 690 ± 60 nM; in test [2], 830 ± 40 nM and 900 ± 70 nM.
As to `C(=NC(COCc1ccc(Oc2ccc(COCC(N=Cc3ccccn3)c3ccccc3)cc2)cc1)c1ccccc1)c1ccccn1.C(=NC(COCc1ccc(Oc2ccc(COCC(N=Cc3ccccn3)c3ccccc3)cc2)cc1)c1ccccc1)c1ccccn1.C(=NC(COCc1ccc(Oc2ccc(COCC(N=Cc3ccccn3)c3ccccc3)cc2)cc1)c1ccccc1)c1ccccn1.[Fe+2].[Fe+2]` (stereo not shown) [5d], the DC50 in test [1] was 590 ± 10 nM and 610 ± 20 nM; in test [2] it was 760 ± 30 nM and 820 ± 30 nM.
For the compound `C(=NC(COCc1ccc(Sc2ccc(COCC(N=Cc3ccccn3)c3ccccc3)cc2)cc1)c1ccccc1)c1ccccn1.C(=NC(COCc1ccc(Sc2ccc(COCC(N=Cc3ccccn3)c3ccccc3)cc2)cc1)c1ccccc1)c1ccccn1.C(=NC(COCc1ccc(Sc2ccc(COCC(N=Cc3ccccn3)c3ccccc3)cc2)cc1)c1ccccc1)c1ccccn1.[Fe+2].[Fe+2]` (stereo not shown) [5e], the DC50 in test [1] is 680 ± 30 nM and 660 ± 20 nM; in test [2], 910 ± 40 nM and 930 ± 30 nM.
`C(=NC(COCc1ccc(Cc2ccc(COCC(N=Cc3ccccn3)c3ccccc3)cc2)cc1)c1ccccc1)c1ccccn1.C(=NC(COCc1ccc(Cc2ccc(COCC(N=Cc3ccccn3)c3ccccc3)cc2)cc1)c1ccccc1)c1ccccn1.C(=NC(COCc1ccc(Cc2ccc(COCC(N=Cc3ccccn3)c3ccccc3)cc2)cc1)c1ccccc1)c1ccccn1.[Fe+2].[Fe+2]` (stereo not shown) [5f]: the DC50 in test [1] is 470 ± 50 nM and 600 ± 60 nM; in test [2] it was 720 ± 70 nM and 800 ± 50 nM.
As for `C(=NC(COCc1ccc(CCc2ccc(COCC(N=Cc3ccccn3)c3ccccc3)cc2)cc1)c1ccccc1)c1ccccn1.C(=NC(COCc1ccc(CCc2ccc(COCC(N=Cc3ccccn3)c3ccccc3)cc2)cc1)c1ccccc1)c1ccccn1.C(=NC(COCc1ccc(CCc2ccc(COCC(N=Cc3ccccn3)c3ccccc3)cc2)cc1)c1ccccc1)c1ccccn1.[Fe+2].[Fe+2]` (stereo not shown) [5g], the DC50 in test [1] is 510 ± 30 nM and 570 ± 50 nM; in test [2], 780 ± 40 nM and 770 ± 50 nM.
With `C(=NC(COCc1ccc2oc3ccc(COCC(N=Cc4ccccn4)c4ccccc4)cc3c2c1)c1ccccc1)c1ccccn1.C(=NC(COCc1ccc2oc3ccc(COCC(N=Cc4ccccn4)c4ccccc4)cc3c2c1)c1ccccc1)c1ccccn1.C(=NC(COCc1ccc2oc3ccc(COCC(N=Cc4ccccn4)c4ccccc4)cc3c2c1)c1ccccc1)c1ccccn1.[Fe+2].[Fe+2]` (stereo not shown) [5h], the DC50 in test [1] is 630 ± 40 nM and 640 ± 50 nM; in test [2], 870 ± 60 nM and 890 ± 20 nM.
